Patent US9339486B2, “Heterocyclic modulators of cannabinoid receptors” (THE CLEVELAND CLINIC FOUNDATION, priority 2008, dated 2016)

Experiments:
rCB2 receptors = rCB2 receptors (Rattus norvegicus (Rat), UniProt Q9QZN9); assay: cAMP activation assay rCB2; type: cell-based; conditions: read-out: Agonist EC50 (mean ± s.e. mean) cAMP activation assays rCB2
Procedure: The compound of Example 3 was tested for agonist activity at the rat CB1 (rCB1) and rCB2 receptors, at eight concentrations, in duplicate: 10, 3, 1, 0.3, 0.1, 0.03, 0.01 and 0.001 μM. Recombinant cells grown to mid-log phase in culture media without antibiotics were detached with PBS containing 5 mM EDTA, centrifuged and resuspended in assay buffer at a concentration of 16.6×10^5 cells/ml. The test was performed in 96 well plates. For testing, 12 μl of cells ([…]) were mixed with 12 μl of agonist at increasing concentrations. […] The plates were then incubated for 30 min at room temperature. After addition of the lysis buffer, cAMP concentrations were estimated, according to the manufacturer specification, with the HTRF kit from Cis-Bio International (Catalogue number 62AM2PEB).

CB1 [1] = molecular target: T1, CB1 (Homo sapiens (Human), UniProt P21554); assay: Radioligand competition binding, CHO-K1 membranes, [3H]SR141716A
Procedure: Mukherjee, S., et al., Species Comparison and Pharmacological Characterization of Rat and Human CB2 Cannabinoid Receptors, Eur J Pharmacol, 2004, 505:1-9. The competition binding experiment was performed in 96 well plates (Masterblock®, Catalogue number 786201, Greiner Bio-One) containing binding buffer (50 mM Tris pH 7.4, 2.5 mM EDTA, 0.5% protease free BSA, saponine 10 μg/ml), recombinant membrane extracts (2 μg protein/well) and 1 nM [^3H] SR141716A (GE Healthcare, TRK1028, 42 Ci/mmol, diluted in binding buffer). […] The sample is incubated in a final volume of 0.1 ml for 60 min at 25° C. and then filtered on GF/C Unifilter microplate (Perkin Elmer, Catalogue number 6005177) presoaked in 0.05% Brij for 2 hrs at room temperature. Filters are washed six times with 4 ml of cold binding buffer and bound [^3H] SR141716A is determined by liquid scintillation counting. IC50 were determined by non-linear regression using one site competition equation. The inhibition constants (Ki) were calculated using the Cheng Prusoff equation (Ki=IC50/(1+(L/KD)), where L=concentration of radioligand in the assay, and KD=affinity of the radioligand for the receptor).

CB2 = CB2 (Homo sapiens (Human), UniProt P34972); assay: CB2 Binding Assay ([3H]WIN 55212-2, cell membrane homogenates)
Procedure: (§1) Cell membrane homogenates (15 μg protein) were incubated for 120 min at 37° C. with 0.8 nM [3H]WIN 55212-2 (the reference standard [Munro, 1993 #1321]) in the absence or presence of the test compound in a buffer containing 50 mM HEPES/Tris HCL (pH 7.4), 5 mM MgCl2, 2.5 mM EGTA, and 0.1% BSA. Nonspecific binding was determined in the presence of 10 μM WIN 55212-2. After being incubated, the samples were filtered rapidly under vacuum through glass fiber filters (GF/B; Packard) presoaked with 0.3% PEI and rinsed several times with ice-cold buffer containing 50 mM Tris HCl (pH 7.4) and 0.5% BSA using a 96-sample cell harvester (Unifilter; Packard). The filters were dried then counted for radioactivity in a scintillation counter (Topcount; Packard) using a scintillation cocktail (Microscint 0; Packard). The results were expressed as a percentage of the inhibition of the control radioligand-specific binding. The reference standard compounds were tested in each experiment at several concentrations to obtain a competition curve from which its IC50 was calculated.

CB1 [2] = molecular target: T1, CB1; assay: CB1 Binding Assay ([3H]CP 55940, cell membrane homogenates)
Procedure: as §1, with “After” for “Cell membrane homogenates (15 μg protein) were incubated for 120 min at 37° C. with 0.8 nM [3H]WIN 55212-2 (the reference standard [Munro, 1993 #1321]) in the absence or presence of the test compound in a buffer containing 50 mM HEPES/Tris HCL (pH 7.4), 5 mM MgCl2, 2.5 mM EGTA, and 0.1% BSA. Nonspecific binding was determined in the presence of 10 μM WIN 55212-2. After”

naïve rats = assay: Open field chamber testing; type: in vivo, rat; conditions: i.p.: Example 3 15 mg/kg, WIN 55,212-2 7 mg/kg, haloperidol 1 mg/kg
Procedure: The automated open-field chamber (Med Associates ENV-515 Test Environment, St. Albans, Vt.) 43.2×43.2×30.5 cm (L×W×H) equipped with three pairs of 16 infrared arrays that continually monitored the animal's movement was used to determine potential CNS effects of the compound of Example 3, WIN55212-2, and haloperidol in naïve rats. Rats were individually tested 15 min after i.p. drug administration. The infrared beams were set 2.5 cm apart horizontally and at a height of 3 cm above the floor, with the rearing array set at 12 cm from the floor. The area in the box was divided into 4 equal quadrants (zones), with data collected within each quadrant and across quadrants (zone entries). An ambulatory movement was defined as a motion of at least 5 cm and was coded by quadrant. Vertical movements were counted when the rat moved vertically a minimum of 12 cm from the floor. Zone entries were defined as an entry into a zone (from another zone). Entry into a zone was counted when the rat was far enough into the zone to break 2 sets of photoelectric beams for the new zone beams during an ambulatory movement.

[3] = CB2, test concentration 1.0E−05 (MD)
[4] = CB1, test concentration 1.0E−05 (MD)

T1 sequence (P21554 whole entry): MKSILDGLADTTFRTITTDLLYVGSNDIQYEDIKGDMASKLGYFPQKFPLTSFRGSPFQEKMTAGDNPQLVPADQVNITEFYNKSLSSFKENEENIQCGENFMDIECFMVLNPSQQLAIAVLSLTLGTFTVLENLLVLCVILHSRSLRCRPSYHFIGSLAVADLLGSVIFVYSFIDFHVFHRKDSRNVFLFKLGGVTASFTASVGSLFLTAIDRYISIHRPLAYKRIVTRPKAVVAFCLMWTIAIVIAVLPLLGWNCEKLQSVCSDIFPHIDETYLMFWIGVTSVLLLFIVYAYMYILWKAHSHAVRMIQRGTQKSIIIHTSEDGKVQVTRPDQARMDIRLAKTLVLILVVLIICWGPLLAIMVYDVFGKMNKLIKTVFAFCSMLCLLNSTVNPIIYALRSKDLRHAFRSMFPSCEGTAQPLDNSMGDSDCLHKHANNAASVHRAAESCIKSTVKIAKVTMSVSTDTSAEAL
Sequence of CB2 (P34972 whole entry): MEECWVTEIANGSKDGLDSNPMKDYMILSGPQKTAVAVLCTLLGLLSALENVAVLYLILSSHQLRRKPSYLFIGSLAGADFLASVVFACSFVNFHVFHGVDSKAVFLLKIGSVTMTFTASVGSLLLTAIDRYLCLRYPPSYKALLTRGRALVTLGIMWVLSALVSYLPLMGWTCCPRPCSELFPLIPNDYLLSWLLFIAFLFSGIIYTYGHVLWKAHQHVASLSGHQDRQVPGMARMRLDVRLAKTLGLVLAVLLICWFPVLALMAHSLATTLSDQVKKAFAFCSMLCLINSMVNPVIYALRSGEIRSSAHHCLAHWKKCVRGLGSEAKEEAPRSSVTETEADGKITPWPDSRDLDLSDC

Compound: CC1(Cc2ccccc2)COc2cc(C(=O)N3CCCCC3)ccc21 (centres unmarked) [Example 3, 3-benzyl-3-methyl-2,3-dihydrobenzofuran-6-carboxylic acid-piperidine amide]
- EC50 (rCB2 receptors): 21.7 ± 7.9 nM
- Ki (CB1 [1]; CHO-K1 membranes, 1 nM [3H]SR141716A, read-out: Mean Ki (nM) hCB1): > 10000 nM
- radioactive ligand displacement at hCB1 receptors (CB1 [1]; up to 10 μM): did not demonstrate detectable radioactive ligand displacement
- % Inhibition of Control Specific Binding (CB2; [3]): 91%
- % of Control Specific Binding Mean (CB2; [3]): 9.4%
- % of Control Specific Binding 1st (CB2; CB2, test concentration 1.0E−05 (MD), first replicate): 13%
- % of Control Specific Binding 2nd (CB2; CB2, test concentration 1.0E−05 (MD), second replicate): 5.8%
- % Inhibition of Control Specific Binding CB2 (CB2; as repeated in Table 4): 91%
- % Inhibition of Control Specific Binding (CB1 [2]; [4]): 71%
- % of Control Specific Binding Mean (CB1 [2]; [4]): 29%
- % of Control Specific Binding 1st (CB1 [2]; CB1, test concentration 1.0E−05 (MD), first replicate): 22%
- % of Control Specific Binding 2nd (CB1 [2]; CB1, test concentration 1.0E−05 (MD), second replicate): 36%
- % Inhibition of Control Specific Binding CB1 (CB1 [2]; as repeated in Table 3): 71%
- exploratory behavior in the open field (distance traveled, ambulatory time, rearing, zone entries) (naïve rats): absence of psychoactive cannabinoid effect
